Experiments:
Assay type in all cases: cell-based
S. aureus = test: bactericidal activity against 54 strains of S. aureus
Description: 5% w/v GML nonaqueous gel is bactericidal for 54 strains of S. aureus, including highly antibiotic resistant organisms and multiple clonal groups. GML is antimicrobial on contact, killing the organisms in only a few minutes. The estimated chance of S. aureus developing resistance to GML is […]; thus resistance is highly unlikely.

S. aureus biofilms = test: biofilm formation by crystal violet staining, absorbance at 595 nm; settings: 10 fold lower GML concentrations than necessary to inhibit bacterial growth
Experimental: (§1) To directly assess the effect of GML on the formation of biofilms, 96 well plastic microtiter plates were inoculated with approximately 10^6/mL of one of three strains of S. aureus (MN8, a methicillin sensitive strain; MNWH, a methicillin resistant strain; or MW2, a methicillin resistant strain), or with non-typable Haemophilus influenzae. Wells were cultured stationary at 37° C. for 24 and 48. As a control, in one set of three wells for each microbe, the wells were agitated 3 times by pipetting up and down. The bactericidal activity of GML was determined by measuring CFU/mL in supernatants. After removal of supernatants, wells were washed three times with PBS to remove unbound cells, and were then treated with crystal violet for 30 minutes. Wells were again washed three times with PBS to remove unbound crystal violet. Finally, wells were treated with ethanol to solubilize biofilm associated crystal violet. Absorbance at 595 nm was determined by an ELISA reader to measure biofilm formation.

[1] = system: S. aureus (MN8, MNWH, MW2); test: bactericidal activity / growth measured as CFU/mL in supernatants of microtiter plate cultures; settings: GML at 500 μg/mL; all three S. aureus strains (MN8, MNWH, MW2); both 24 and 48 hours
Experimental: as §1

Substance: Glycerol monolaurate [GML]
- time to kill the organisms (antimicrobial on contact) (S. aureus): a few minutes
- biofilm formation (crystal violet staining of retained biofilm material) (S. aureus biofilms): significantly inhibited
- growth as measured by CFU/mL [1]: completely inhibited

— US20180289656A1, “COMPOSITIONS AND METHODS TO TREAT URINARY TRACT INFECTIONS” (Hennepin Life Sciences, LLC, priority 2015, published 2018)
